Legend:
BTK = target: T1, BTK (Homo sapiens, UniProt Q06187); assay: BTK-GFP protein abundance flow cytometry assay in HEK293A; type: cell-based; conditions: 24 h; for BTK degradation Amax: % protein remaining at the concentration at which maximum degradation is seen, HEK293A; for DC50: concentration at which 50% maximal degradation was observed, HEK293A BTK-GFP sensor cells
T1 construct: the BTK open reading frame (ORF) was first shuttled from a pcDNA-DEST40-BTK vector; expressed in transfected cells; host or cells: HEK293A (Invitrogen R70507), lentiviral transduction, blasticidin selection
Experimental: Degradation of BTK, CSK, ABL2, EPHA4 and YES1 was measured in HEK293A cells (Invitrogen R70507) expressing either BTK-GFP and RFP, CSK-GFP and mCherry, GFP-ABL2 and mCherry, EPHA4-GFP and mCherry, or YES1-GFP and mCherry from a stably integrated bicistronic BTK-GFP-iresRFP, CSK-GFP-CHYSEL-mCherry, GFP-ABL2-CHYSEL-mCherry, EPHA4-GFP-CHYSEL-mCherry, or YES1-GFP-CHYSEL-mCherry construct, respectively. Reduction of the GFP signal measured by flow cytometry served as readout for BTK, CSK, ABL2, EPHA4 and YES1 degradation after degrader treatment.
The mix was incubated for another 20 min at RT and then added on 1 mL of a freshly prepared suspension of HEK293FT cells in a well of a 6-well plate (concentration 1.2×10^6 cells/mL). 1 day after transfection, the medium was replaced with 1.5 mL of complete growth medium (DMEM high Glucose+10% FCS+1% L-Glutamine+1% NEAA+1% NaPyr.). 48 h post transfection supernatant containing viral transducing particles was collected and frozen at −80° C.
Infection was performed with 90 μL of collected supernatant containing viral transducing particles in 1 mL medium including 8 µg/mL polybrene. 24 h post infection, stably transfected cells were selected with blasticidin at a concentration of 8 μg/mL referred to as stable HEK293A sensor cells.
Stable HEK293A sensor cells were maintained in complete growth medium (DMEM high Glucose+10% FCS+1% L-Glutamine+1% NEAA+1% NaPyr.) with passaging performed twice per week. On Day 0, stable HEK293A sensor cells were seeded at 10,000 cells/well in a 96-well microtiter plate in 260 μL complete medium. On Day 1, cells were treated in duplicate with 10-point 1:3 dilution series of compound using the HP D300 Digital Dispenser (Tecan). DMSO concentrations were normalized across the plate to 0.1%. On Day 2, after 24 h of incubation at 37° C., treatment media was discarded, cells rinsed with 100 μL/well PBS and then detached using 40 μL trypsin/well for 5 min. Trypsin was neutralized with 100 μL/well PBS+20% FCS). Flow cytometry was performed on the samples using the BD FACS CANTO II (Becton Dickinson). Cell identification was then performed using forward (FSC) vs. side scatter (SSC) plots. Single cell discrimination is performed using SSC-Width (SSC-W) vs. SSC-Height (SSC-H) plots. Median GFP values for 5,000 single cells are used to determine BTK levels. Median GFP values from HEK293 Å-iresRFP are used as a background signal and thus defining 0% BTK signal. Median GFP values from DMSO treated HEK293 Å-BTK-GFP-iresRFP are used to define 100% BTK signal for subsequent DC50 curves (concentration at 50% BTK degradation). GFP and RFP are read in the channels called FITC and PE, respectively.
Concentration response curves plotting relative reduction of the GFP signal (measured by flow cytometry) versus 10 compound concentrations (starting concentration 10 μM, 3 fold dilution steps) of the compounds allowed generation of DC50 values. Protein abundance measured for the second generation vectors having a chysel was done in close analogy to the above described method for measuring BTK abundance.
Table 5 columns are defined as follows: DC50 refers to the concentration at which 50% maximal degradation was observed; deg Amax is the extent of degradation and the value refers to the % protein remaining at the concentration at which maximum degradation is seen.

CRBN [1] = target: T2, CRBN (Homo sapiens, UniProt Q96SW2); assay: CRBN displacement assay Format 2a (fluorescence polarization, 1536-well, Envision reader); type: binding; conditions: for CRBN Amax* (% at 50 μM) Format 2a: greatest effect as % displacement of the reference probe at the highest concentration tested (50 μM), given where AC50 >50 μM, 45 min
Experimental: (§1) Compounds were tested in the following biochemical and cellular assays.
(§2) BodipyFL conjugated lenalidomide compound HH was used as a fluorescent probe. […] Protein and substrate were diluted in assay buffer.
The fluorescence of the Bodipy FL-based probe was excited at 480 nm and the emissions of the product were measured at 535 nm. The fluorescence in each well was excited by 30 flashes per measurement.
For the determination of AC50 values, assays were performed at room temperature in 1536-well plates with a total assay volume of 6.03 μL per well. The test compounds were dissolved and diluted in 100% DMSO. For the assays, 30 nL of DMSO or compound solution were added per well, followed by the addition of 3 μL protein solution (80 nM protein in 1× assay buffer).
The final assay concentration of the protein was nominally 40 nM. After 45 minutes of pre-incubation at room temperature, the competition for binding was started by the addition of 3 μL probe solution (10 nM probe dissolved in assay buffer). The final concentration of the probe in the assays was 5 nM. After the addition of the probe solution, the final DMSO concentration in the assay was 0.5% (v/v). The effect of the probe on the pre-established compound-protein complex equilibrium was determined after 45 minutes (t=45 min). The AC50 value was calculated from the plot of percentage of protein saturation versus the test compound concentration by a logistics fit according to: y=A^2+(A^1−A^2)/(1+(x/AC50)^p), where y is the %-saturation value at the test compound concentration, x. A^1 is the lowest saturation value, i.e., 0%, and A^2 the maximum saturation value, i.e. 100%. The exponent, p, is the Hill coefficient.

CRBN [2] = target: T2, CRBN; assay: CRBN displacement assay Format 1 (fluorescence polarization, BodipyFL-lenalidomide probe Compound HH); type: binding
Experimental: as §1, §2
All protein and probe containing solutions were handled in ‘Maxymum Recovery’ tubes (Axygen Scientific Inc., Union City, USA). […] For the plate measurements a PHERAstar reader (BMG Labtech, Offenburg, Germany) was used. The instrument was equipped with a specific optics module containing filters and dichoic mirrors for measuring the fluorescence polarization-type assay. With this module, the fluorescence of the Bodipy FL-based probe was excited at 485 nm and the emissions of the product were measured at 520 nm. The fluorescence in each well was excited by 10 flashes per measurement.
For the determination of AC50 values, the assays were performed at room temperature in 384-well plates with a total assay volume of 10.1 μL per well. The test compound was dissolved in 90% (v/v) DMSO/water. For the assays, 100 nL of the 90% (v/v) DMSO/water solution or compound solution were added per well, followed by the addition of 5 μL protein solution (protein in 1× assay buffer).
The final assay concentration of the protein was nominally 100 nM. After 45 minutes of pre-incubation at room temperature, the competition for binding was started by the addition of 5 μL probe solution (probe dissolved in assay buffer). The final concentration of the probes in the assays was 5 nM. After the addition of the probe solution, the final DMSO concentration in the assay was 0.9% (v/v). The effect of the probe on the pre-established compound-protein complex equilibrium was determined after 45 minutes (t=45 min). The AC50 value was calculated from the plot of percentage of protein saturation versus the test compound concentration by a logistics fit according to: y=A^2+(A^1−A^2)/(1+(x/AC50)^p), where y is the %-saturation value at the test compound concentration, x. A^1 is the lowest saturation value, i.e., 0%, and A^2 the maximum saturation value, i.e. 100%. The exponent, p, is the Hill coefficient.

[3] = concentration at which 50% of reference probe Compound HH is displaced, 40 nM protein, 5 nM probe, read-out: CRBN AC50 [μM] Format 2a
[4] = concentration at which 50% of reference probe Compound HH is displaced, 100 nM protein, 5 nM probe, Table 4, read-out: CRBN AC50 [μM] Format 1

T2 sequence (Q96SW2 whole entry): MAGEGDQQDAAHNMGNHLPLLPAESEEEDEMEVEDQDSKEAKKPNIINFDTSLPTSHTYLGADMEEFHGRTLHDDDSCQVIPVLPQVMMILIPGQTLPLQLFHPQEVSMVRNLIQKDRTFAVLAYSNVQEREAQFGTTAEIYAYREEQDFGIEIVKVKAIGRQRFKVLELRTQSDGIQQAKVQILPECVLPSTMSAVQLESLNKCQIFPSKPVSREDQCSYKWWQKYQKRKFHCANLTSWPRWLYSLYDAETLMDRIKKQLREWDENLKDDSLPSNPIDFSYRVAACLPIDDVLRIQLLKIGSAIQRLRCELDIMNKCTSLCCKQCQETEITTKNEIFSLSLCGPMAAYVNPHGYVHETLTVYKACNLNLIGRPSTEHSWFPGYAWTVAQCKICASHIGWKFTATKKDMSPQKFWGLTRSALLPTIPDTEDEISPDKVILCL
T1 sequence (Q06187 whole entry): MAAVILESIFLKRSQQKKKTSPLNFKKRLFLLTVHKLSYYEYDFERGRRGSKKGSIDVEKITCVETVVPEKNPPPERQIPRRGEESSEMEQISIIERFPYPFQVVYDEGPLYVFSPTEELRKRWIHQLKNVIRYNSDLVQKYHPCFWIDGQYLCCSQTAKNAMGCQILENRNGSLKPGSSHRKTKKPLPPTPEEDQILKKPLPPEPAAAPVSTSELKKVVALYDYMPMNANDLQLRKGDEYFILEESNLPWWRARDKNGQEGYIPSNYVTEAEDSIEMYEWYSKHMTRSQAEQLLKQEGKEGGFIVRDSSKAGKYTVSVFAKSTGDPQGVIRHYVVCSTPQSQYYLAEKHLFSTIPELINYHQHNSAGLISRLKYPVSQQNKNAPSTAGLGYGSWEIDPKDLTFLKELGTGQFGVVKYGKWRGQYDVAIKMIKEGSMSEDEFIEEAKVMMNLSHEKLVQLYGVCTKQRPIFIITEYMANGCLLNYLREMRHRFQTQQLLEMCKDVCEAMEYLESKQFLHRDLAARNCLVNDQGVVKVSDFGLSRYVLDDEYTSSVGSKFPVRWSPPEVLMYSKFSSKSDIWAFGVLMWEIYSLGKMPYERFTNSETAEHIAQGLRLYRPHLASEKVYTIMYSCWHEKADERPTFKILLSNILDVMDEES

Compound | AC50 (CRBN [1]) [µM] | AC50 (CRBN [2]) [µM] | AC50 (CRBN [1]; [3]) [µM] | AC50 (CRBN [2]; [4]) [µM] | also measured
Cc1cc(OCCN2CCC(OC3CCN(Cc4ccc(-c5cc6c(-c7cc(F)cc(NC(=O)c8ccc(C(C)(C)O)cc8F)c7C)ncnc6[nH]5)cc4)CC3)CC2)ccc1N1CCC(=O)NC1=O [Compound 30, N-(3-(6-(4-((4-((1-(2-(4-(2,4-dioxotetrahydropyrimidin-1(2H)-yl)-3-methylphenoxy)ethyl)piperidin-4-yl)oxy)piperidin-1-yl)methyl)phenyl)-7H-pyrrolo[2,3-d]pyrimidin-4-yl)-5-fluoro-2-methylphenyl)-2-fluoro-4-(2-hydroxypropan-2-yl)benzamide] |  |  |  |  | BTK degradation Amax (BTK): 12.2%; DC50 (BTK): 0.0098 µM
Cc1c(NC(=O)c2ccc(C(C)(C)O)cc2F)cc(F)cc1-c1ncnc2[nH]c(-c3ccc(CN4CCC5(CCN(CCOc6ccc(N7CCC(=O)NC7=O)c(Cl)c6)CC5)CC4)cc3)cc12 [Compound 31, N-(3-(6-(4-((9-(2-(3-chloro-4-(2,4-dioxotetrahydropyrimidin-1(2H)-yl)phenoxy)ethyl)-3,9-diazaspiro[5.5]undecan-3-yl)methyl)phenyl)-7H-pyrrolo[2,3-d]pyrimidin-4-yl)-5-fluoro-2-methylphenyl)-2-fluoro-4-(2-hydroxypropan-2-yl)benzamide] |  |  |  |  | BTK degradation Amax (BTK): 32.8%; DC50 (BTK): 0.0557 µM
Cc1c(NC(=O)N2C[C@H](CC(C)C)[C@@H](O)C2)cc(F)cc1-c1ncnc2[nH]c(-c3ccc(CN4CCN(CCOc5ccc(N6CCC(=O)NC6=O)cc5)CC4)cc3)cc12 [Compound 32, (3R,4S)—N-(3-(6-(4-((4-(2-(4-(2,4-Dioxotetrahydropyrimidin-1(2H)-yl)phenoxy)ethyl)piperazin-1-yl)methyl)phenyl)-7H-pyrrolo[2,3-d]pyrimidin-4-yl)-5-fluoro-2-methylphenyl)-3-hydroxy-4-isobutylpyrrolidine-1-carboxamide] |  |  |  |  | BTK degradation Amax (BTK): 16.7%; DC50 (BTK): 0.0014 µM
C=CCn1cccc(CN2CCC(=O)NC2=O)c1=O [ILB-1, 1-((1-allyl-2-oxo-1,2-dihydropyridin-3-yl)methyl)dihydropyrimidine-2,4(1H,3H)-dione] | 4.79 | 11 |  |  | 
O=C1CCN(Cc2cccn(CCO)c2=O)C(=O)N1 [ILB-3, 1-((1-(2-Hydroxyethyl)-2-oxo-1,2-dihydropyridin-3-yl)methyl)dihydropyrimidine-2,4(1H,3H)-dione] | 4.17 | 14.1 |  |  | 
O=C1CCN(Cc2cccn(CCN3CCC(OC4CCNCC4)CC3)c2=O)C(=O)N1 [ILB-6, 1-((2-oxo-1-(2-(4-(piperidin-4-yloxy)piperidin-1-yl)ethyl)-1,2-dihydropyridin-3-yl)methyl)dihydropyrimidine-2,4(1H,3H)-dione] | 8.36 | 19.8 |  |  | 
O=C1CCN(Cc2cccc(CCO)c2)C(=O)N1 [ILB-7, 1-(3-(2-Hydroxyethyl)benzyl)dihydropyrimidine-2,4(1H,3H)-dione] | > 50 | 61.2 |  |  | CRBN Amax* (% at 50 μM) Format 2a (CRBN [1]): 40%
O=C1CCN(Cc2cc(C(=O)O)ccn2)C(=O)N1 [ILB-8, 2-((2,4-Dioxotetrahydropyrimidin-1(2H)-yl)methyl)isonicotinic acid] | > 50 | > 100 |  |  | CRBN Amax* (% at 50 μM) Format 2a (CRBN [1]): 21%
O=C(O)COc1ccc(N2CCC(=O)NC2=O)cc1 [ILB-14, 2-(4-(2,4-Dioxotetrahydropyrimidin-1(2H)-yl)phenoxy)acetic acid] |  |  | 5.79 | 13 | 
Cc1cc(OCC(=O)O)ccc1N1CCC(=O)NC1=O [ILB-15] |  |  | 2.61 | 7.37 | 
O=C(O)COc1cccc(N2CCC(=O)NC2=O)c1 [ILB-16, 2-(3-(2,4-Dioxotetrahydropyrimidin-1(2H)-yl)phenoxy)acetic acid] |  |  | 7.34 | 11.7 | 
O=CCOc1cccc(N2CCC(=O)NC2=O)c1 [ILB-18, 2-(3-(2,4-Dioxotetrahydropyrimidin-1(2H)-yl)phenoxy)acetaldehyde] |  |  | 3.79 | 11.2 | 
Cc1ccc(OCC=O)cc1N1CCC(=O)NC1=O [ILB-19, 2-(3-(2,4-dioxotetrahydropyrimidin-1(2H)-yl)-4-methylphenoxy)acetaldehyde] |  |  | 0.8 | 2.51 | 
Cc1cc(F)c(C(=O)O)cc1N1CCC(=O)NC1=O [ILB-29, 5-(2,4-dioxotetrahydropyrimidin-1(2H)-yl)-2-fluoro-4-methylbenzoic acid] |  |  |  | 0.95 | 
O=C1CCN(c2c(F)cc(C#CCN3CCNCC3)cc2F)C(=O)N1 [ILB-45, 1-(2,6-difluoro-4-(3-(piperazin-1-yl)prop-1-yn-1-yl)phenyl)dihydropyrimidine-2,4(1H,3H)-dione] |  | 13.5 |  |  | 
O=C1CCN(c2cc(C(=O)N3CCC(OC4CCNCC4)CC3)ccc2Cl)C(=O)N1 [ILB-60, 1-(2-Chloro-5-(4-(piperidin-4-yloxy)piperidine-1-carbonyl)phenyl)dihydropyrimidine-2,4(1H,3H)-dione] |  | 2.8 |  |  | 
